Reference: patent US5231089A, “Method of improving oral bioavailability of carbamazepine” (priority 1992, dated 1993)
Read-outs that look alike come from different tables or passages of the source.

Legend:
[1] = dog, in vivo
[2] = cited from earlier work
[3] = system: maximal electroshock seizure (MES) test models; details: in vivo; cited from earlier work
[4] = cited from earlier work; for solubilization in water: 15 mg/mL hydroxypropyl-β-cyclodextrin (Uekama et al)
[5] = system: generalized tonic-clonic seizures; details: human, in vivo; cited from earlier work
[6] = cited from earlier work; for Absolute bioavailability: 100 mg 2% oral suspension vs intravenous infusion (Gerardin et al)
[7] = with water-soluble β-cyclodextrin epichlorohydrin polymer; cited from earlier work
[8] = in vivo; cited from earlier work
[9] = healthy human subjects (Neuvonen et al)

Question: With NC(=O)N1c2ccccc2C=Cc2ccccc21 [TEGRETOL] as the molecule, how does the “coefficient of variation around the AUC” value [1] read?
Answer: Its value is 78%.

Question: What about the “coefficient of variation of Cmax” value [1] of the same molecule?
Answer: The value was 71%.

Question: For NC(=O)N1c2ccccc2C=Cc2ccccc21 [carbamazepine, 5H-dibenz[b,f]azepine-5-carboxamide], which “gingival hypertropy, hirsutism, acne” value ([2]; effects associated with phenytoin) is on record?
Answer: The value was “does not precipitate”.

Question: What about the Therapeutic plasma levels ([2]; human, in vivo) of the same molecule?
Answer: The Therapeutic plasma levels was 4 to 10 µg/mL.

Question: What about the “level at which diplopia, dizziness, drowsiness and ataxia occur” value ([2]; human, in vivo) of the same molecule?
Answer: The value was “above 6 μg/mL”.

Question: What about the sedation ([2]; human, in vivo) of the same molecule?
Answer: Its sedation is “less sedating”.

Question: What about the “serum level at which nystagmus may occur” value ([2]; human, in vivo) of the same molecule?
Answer: Its value is “below the therapeutic range”.

Question: What about the “effectiveness in MES test models” value [3] of the same molecule?
Answer: The value was “effective”.

Question: And the “water solubility of carbamazepine” value ([4]; no cyclodextrin)?
Answer: Its value is “extremely poor water solubility”.

Question: What about the “efficacy in generalized tonic-clonic seizures (grand mal)” value [5] of the same molecule?
Answer: Its value is “proven efficacy”.

Question: And the “total bioavailability (area under the curve)” value ([6]; Australian tablets 1977 vs since 1980 (Eadie et al))?
Answer: The value was “no significant difference in total bioavailability”.

Question: And the “oral absorption, adequacy” value ([6]; Goodman and Gilman)?
Answer: Its value is “adequate”.

Question: What about the “plasma levels, 200 or 400 mg tablets” value ([6]; epileptic patients (Monaco et al)) of the same molecule?
Answer: The value was “no difference in plasma levels”.

Question: What about the “absorption, rectal versus oral” value [6, 9] of the same molecule?
Answer: Its value is “significantly slower”.

Question: What about the “total bioavailability, rectal versus oral” value [6, 9] of the same molecule?
Answer: The value was “similar”.

Question: What about the “bioavailability from the oral suspension versus intravenous” value ([6]; healthy male volunteers (Gerardin et al)) of the same molecule?
Answer: Its value is “equivalent”.

Question: What about the oral absorption ([6]; rate/regularity, in words) of the same molecule?
Answer: The oral absorption was “slow and somewhat erratic”.

Question: What about the Absolute bioavailability ([6]; subject 1) of the same molecule?
Answer: Its Absolute bioavailability is 102.3%.

Question: And the Absolute bioavailability ([6]; subject 2)?
Answer: The Absolute bioavailability was 100.1%.

Question: For CCCCCCNC(=O)n1cc(F)c(=O)[nH]c1=O [carmofur], which solubilization in water [4] is on record?
Answer: The solubilization in water was “improved solubilization”.

Question: For C[C@H]1O[C@@H](O[C@H]2[C@@H](O)C[C@H](O[C@H]3[C@@H](O)C[C@H](O[C@H]4CC[C@@]5(C)[C@H](CC[C@@H]6[C@@H]5C[C@@H](O)[C@]5(C)[C@@H](C7=CC(=O)OC7)CC[C@]65O)C4)O[C@@H]3C)O[C@@H]2C)C[C@H](O)[C@@H]1O [digoxin], which solubilization in water [4] is on record?
Answer: The solubilization in water was “improved solubilization”.

Question: For CC(C(=O)O)c1ccc(-c2ccccc2)c(F)c1 (stereo not shown) [flurbiprofen], which solubilization in water [4] is on record?
Answer: The solubilization in water was “improved solubilization”.

Question: For COc1ccc2c(c1)c(CC(=O)O)c(C)n2C(=O)c1ccc(Cl)cc1 [indomethacin], which solubilization in water [4] is on record?
Answer: The solubilization in water was “improved solubilization”.

Question: What does the source list for O=C1NC(=O)C(c2ccccc2)(c2ccccc2)N1 [phenytoin]?
Answer: solubilization in water [4]: improved solubilization; dissolution and absorption [7]: Improvements

Question: Which solubilization in water [4] does the source give for C[C@]12C=CC(=O)C=C1CC[C@@H]1[C@@H]2[C@@H](O)C[C@@]2(C)[C@H]1CC[C@]2(O)C(=O)CO [prednisolone] here?
Answer: Its solubilization in water is “improved solubilization”.

Question: For CC(=O)[C@H]1CC[C@H]2[C@@H]3CCC4=CC(=O)CC[C@]4(C)[C@H]3CC[C@]12C [progesterone], which solubilization in water [4] is on record?
Answer: The solubilization in water was “improved solubilization”.

Question: For C[C@]12CC[C@H]3[C@@H](CCC4=CC(=O)CC[C@@]43C)[C@@H]1CC[C@@H]2O [testosterone], which solubilization in water [4] is on record?
Answer: The solubilization in water was “improved solubilization”.

Question: Which aqueous solubility ([4]; 25° C.) does the source give for OC[C@H]1O[C@@H]2O[C@H]3[C@H](O)[C@@H](O)[C@@H](O[C@H]4[C@H](O)[C@@H](O)[C@@H](O[C@H]5[C@H](O)[C@@H](O)[C@@H](O[C@H]6[C@H](O)[C@@H](O)[C@@H](O[C@H]7[C@H](O)[C@@H](O)[C@@H](O[C@H]8[C@H](O)[C@@H](O)[C@@H](O[C@H]1[C@H](O)[C@H]2O)O[C@@H]8CO)O[C@@H]7CO)O[C@@H]6CO)O[C@@H]5CO)O[C@@H]4CO)O[C@@H]3CO [β-cyclodextrin] here?
Answer: Its aqueous solubility is “about 1.8 % w/v”.

Question: And the nephrotoxicity [8]?
Answer: The nephrotoxicity was “nephrotoxicity”.

Question: With OC[C@H]1O[C@@H]2O[C@H]3[C@H](O)[C@@H](O)[C@@H](O[C@H]4[C@H](O)[C@@H](O)[C@@H](O[C@H]5[C@H](O)[C@@H](O)[C@@H](O[C@H]6[C@H](O)[C@@H](O)[C@@H](O[C@H]7[C@H](O)[C@@H](O)[C@@H](O[C@H]8[C@H](O)[C@@H](O)[C@@H](O[C@H]9[C@H](O)[C@@H](O)[C@@H](O[C@H]1[C@H](O)[C@H]2O)O[C@@H]9CO)O[C@@H]8CO)O[C@@H]7CO)O[C@@H]6CO)O[C@@H]5CO)O[C@@H]4CO)O[C@@H]3CO [γ-cyclodextrin] as the molecule, how does the “effect on the water solubility of carbamazepine” value ([4]; Brewster et al) read?
Answer: The value was “significantly enhance”.
